Source: US6355799B1, “Substituted benzene compounds, process for their preparation, and herbicidal and defoliant compositions containing them” (ISK Americas Incorporated, priority 1997, dated 2002)

Key:
Assay type in all cases: in vivo
[1] = tested on: large crabgrass (Digitaria sanguinalis, DIGSA); test: Pre-emerge test, greenhouse herbicide activity screening; conditions: pre-emerge, 14 days after application, rating scale 0-100
Outline: (§1)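 Sandy loam pots; pre-emerge: sown 1 d pre-spray, surface-watered after, then bottom-watered. Post-emerge: sown 8–21 d before, 2–3 leaf stage, + 0.25% v/v NIS, bottom-watered. Acetone, 187 l/ha track spray, 15–1000 g ai/ha. 0–100 injury score, day 14.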

[2] = tested on: johnsongrass (Sorghum halepense, SORHA); test: as above; conditions: pre-emerge, 14 days after application, rating scale 0-100
Outline: as §1

[3] = tested on: lambsquarters (Chenopodium album, CHEAL); test: as above; conditions: pre-emerge, 14 days after application, rating scale 0-100
Outline: as §1

[4] = tested on: green foxtail (Setaria viridis, SETVI); test: as above; conditions: pre-emerge, 14 days after application, rating scale 0-100
Outline: as §1

[5] = tested on: barnyardgrass (Echinochloa crus-galli, ECHCG); test: as above; conditions: pre-emerge, 14 days after application, rating scale 0-100
Outline: as §1

[6] = tested on: sicklepod (Cassia obtusifolia, CASOB); test: as above; conditions: pre-emerge, 14 days after application, rating scale 0-100
Outline: as §1

[7] = tested on: ivyleaf morningglory (Ipomoea hederacea, IPOHE); test: as above; conditions: pre-emerge, 14 days after application, rating scale 0-100
Outline: as §1

[8] = tested on: velvetleaf (Abutilon theophrasti, ABUTH); test: as above; conditions: pre-emerge, 14 days after application, rating scale 0-100
Outline: as §1

[9] = tested on: redroot pigweed (Amaranthus retroflexus, AMARE); test: as above; conditions: pre-emerge, 14 days after application, rating scale 0-100
Outline: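 Compounds in acetone were track-sprayed at 187 l/ha, 15–1000 g ai/ha, onto sandy loam pots. Pre-emerge seeds were sown one day before spraying, with surface watering afterwards. Post-emerge plants were at the 2–3 leaf stage and sprayed with 0.25% v/v non-ionic surfactant. Injury was rated 0–100 at 14 days.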

[10] = tested on: upland rice (Oryza sp., var. Tebonnet, RICE); test: Post-emerge test, crop safety; conditions: post-emerge, 14 days after application, rating scale 0-100
Outline: as §1

[11] = tested on: field corn (Zea mays L., var. Dekalb 535, CORN); test: Post-emerge test, crop safety; conditions: post-emerge, 14 days after application, rating scale 0-100
Outline: as §1

[12] = tested on: upland rice (Oryza sp., var. Tebonnet, RICE); test: Pre-emerge test, crop safety; conditions: pre-emerge, 14 days after application, rating scale 0-100
Outline: (§2)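 Compounds in acetone were track-sprayed at 15-1000 g ai/ha (187 l/ha) on sandy loam pots: pre-emerge one day after seeding, post-emerge at 2-3 leaf stage with 0.25% v/v non-ionic surfactant. Phytotoxicity was rated 14 days later on a 0 (no damage) to 100 (complete death) scale.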

[13] = tested on: field corn (Zea mays L., var. Dekalb 535, CORN); test: Pre-emerge test, crop safety; conditions: pre-emerge, 14 days after application, rating scale 0-100
Outline: as §2

[14] = tested on: large crabgrass (Digitaria sanguinalis, DIGSA); test: Post-emerge test, greenhouse herbicide activity screening; conditions: post-emerge, 14 days after application, rating scale 0-100
Outline: (§3)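 Each test used a mechanized track sprayer delivering 187 l/ha of acetone solution at 15–1000 g ai/ha. Post-emerge foliage at 2–3 leaves was treated with added 0.25% v/v non-ionic surfactant and bottom-watered only. Injury was assessed on day 14, where 100 means total kill.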

[15] = tested on: redroot pigweed (Amaranthus retroflexus, AMARE); test: as above; conditions: post-emerge, 14 days after application
Outline: as §3

[16] = tested on: johnsongrass (Sorghum halepense, SORHA); test: as above; conditions: post-emerge, 14 days after application, rating scale 0-100
Outline: as §3

[17] = tested on: lambsquarters (Chenopodium album, CHEAL); test: as above; conditions: post-emerge, 14 days after application, rating scale 0-100
Outline: as §3

[18] = tested on: green foxtail (Setaria viridis, SETVI); test: as above; conditions: post-emerge, 14 days after application, rating scale 0-100
Outline: as §3

[19] = tested on: barnyardgrass (Echinochloa crus-galli, ECHCG); test: as above; conditions: post-emerge, 14 days after application, rating scale 0-100
Outline: as §3

[20] = tested on: sicklepod (Cassia obtusifolia, CASOB); test: as above; conditions: post-emerge, 14 days after application, rating scale 0-100
Outline: as §3

[21] = tested on: ivyleaf morningglory (Ipomoea hederacea, IPOHE); test: as above; conditions: post-emerge, 14 days after application, rating scale 0-100
Outline: as §3

[22] = tested on: velvetleaf (Abutilon theophrasti, ABUTH); test: as above; conditions: post-emerge, 14 days after application, rating scale 0-100
Outline: as §3

`COCC(C)=NNc1c(OC)c(Cl)cc(F)c1-n1c(=O)cc(C(F)(F)F)n(C)c1=O` [15-13] was tested, and the “phytotoxicity rating DIGSA” value ([1]; 46 g ai/ha) was 100, the “phytotoxicity rating DIGSA” value ([1]; 185 g ai/ha) was 100 and the “phytotoxicity rating SORHA” value ([2]; 46 g ai/ha) was 99. For the same molecule, the “phytotoxicity rating SORHA” value ([2]; 185 g ai/ha) was 100, the “phytotoxicity rating CHEAL” value ([3]; 46 g ai/ha) was 100 and the “phytotoxicity rating CHEAL” value ([3]; 185 g ai/ha) was 100. The “phytotoxicity rating SETVI” value ([4]; 46 g ai/ha) was 100, the “phytotoxicity rating SETVI” value ([4]; 185 g ai/ha) was 100 and the “phytotoxicity rating ECHCG” value ([5]; 46 g ai/ha) was 99. The “phytotoxicity rating ECHCG” value ([5]; 185 g ai/ha) was 100, the “phytotoxicity rating CASOB” value ([6]; 46 g ai/ha) was 100 and the “phytotoxicity rating CASOB” value ([6]; 185 g ai/ha) was 100. For the same molecule, the “phytotoxicity rating IPOHE” value ([7]; 46 g ai/ha) was 100, the “phytotoxicity rating IPOHE” value ([7]; 185 g ai/ha) was 100 and the “phytotoxicity rating ABUTH” value ([8]; 46 g ai/ha) was 100. For the same molecule, the “phytotoxicity rating ABUTH” value ([8]; 185 g ai/ha) was 100, the “phytotoxicity rating AMARE” value ([9]; 46 g ai/ha) was 100 and the “phytotoxicity rating AMARE” value ([9]; 185 g ai/ha) was 100. For the same molecule, the “Post-emerge Herbicidal Activity RICE (crop damage rating)” value ([10]; 63 g ai/ha) was 60, the “Post-emerge Herbicidal Activity RICE (crop damage rating)” value ([10]; 250 g ai/ha) was 90 and the “Post-emerge Herbicidal Activity CORN (crop damage rating)” value ([11]; 63 g ai/ha) was 15. The “Post-emerge Herbicidal Activity CORN (crop damage rating)” value ([11]; 250 g ai/ha) was 50, the “phytotoxicity rating RICE” value ([12]; 46 g ai/ha) was 90 and the “phytotoxicity rating RICE” value ([12]; 185 g ai/ha) was 100. The “phytotoxicity rating CORN” value ([13]; 46 g ai/ha) was 35, the “phytotoxicity rating CORN” value ([13]; 185 g ai/ha) was 100 and the “Post-emerge Herbicidal Activity DIGSA (phytotoxicity rating)” value ([14]; 63 g ai/ha) was 10. The “Post-emerge Herbicidal Activity DIGSA (phytotoxicity rating)” value ([14]; 250 g ai/ha) was 70, the “Post-emerge Herbicidal Activity AMARE (phytotoxicity rating)” value ([15]; 63 g ai/ha, rating scale 0-100 (0 no damage, 100 complete death)) was 80 and the “Post-emerge Herbicidal Activity AMARE (phytotoxicity rating)” value ([15]; 250 g ai/ha, rating scale 0-100) was 95. The “Post-emerge Herbicidal Activity SORHA (phytotoxicity rating)” value ([16]; 63 g ai/ha) was 10, the “Post-emerge Herbicidal Activity SORHA (phytotoxicity rating)” value ([16]; 250 g ai/ha) was 70 and the “Post-emerge Herbicidal Activity CHEAL (phytotoxicity rating)” value ([17]; 63 g ai/ha) was 95. For the same molecule, the “Post-emerge Herbicidal Activity CHEAL (phytotoxicity rating)” value ([17]; 250 g ai/ha) was 100, the “Post-emerge Herbicidal Activity SETVI (phytotoxicity rating)” value ([18]; 63 g ai/ha) was 20 and the “Post-emerge Herbicidal Activity SETVI (phytotoxicity rating)” value ([18]; 250 g ai/ha) was 60. For the same molecule, the “Post-emerge Herbicidal Activity ECHCG (phytotoxicity rating)” value ([19]; 63 g ai/ha) was 20, the “Post-emerge Herbicidal Activity ECHCG (phytotoxicity rating)” value ([19]; 250 g ai/ha) was 85 and the “Post-emerge Herbicidal Activity CASOB (phytotoxicity rating)” value ([20]; 63 g ai/ha) was 60. For the same molecule, the “Post-emerge Herbicidal Activity CASOB (phytotoxicity rating)” value ([20]; 250 g ai/ha) was 100, the “Post-emerge Herbicidal Activity IPOHE (phytotoxicity rating)” value ([21]; 63 g ai/ha) was 100 and the “Post-emerge Herbicidal Activity IPOHE (phytotoxicity rating)” value ([21]; 250 g ai/ha) was 100. For the same molecule, the “Post-emerge Herbicidal Activity ABUTH (phytotoxicity rating)” value ([22]; 63 g ai/ha) was 100 and the “Post-emerge Herbicidal Activity ABUTH (phytotoxicity rating)” value ([22]; 250 g ai/ha) was 100.
